According to patent US20260097004A1, “PHARMACEUTICAL COMPOSITION FOR TREATING MAST CELL-MEDIATED INFLAMMATORY DISEASES” (priority 2022, published 2026):

Key:
MrgA1 = biological target: T1, MrgA1 (Mus musculus, UniProt Q91WW5); assay: Calcium ion flow when substance P acts on MrgA1; format: cell-based; details: substance P 10 μM acted on MrgA1; cells with vs without Atovaquone; FIG. 2
T1 sequence (Q91WW5 1-304): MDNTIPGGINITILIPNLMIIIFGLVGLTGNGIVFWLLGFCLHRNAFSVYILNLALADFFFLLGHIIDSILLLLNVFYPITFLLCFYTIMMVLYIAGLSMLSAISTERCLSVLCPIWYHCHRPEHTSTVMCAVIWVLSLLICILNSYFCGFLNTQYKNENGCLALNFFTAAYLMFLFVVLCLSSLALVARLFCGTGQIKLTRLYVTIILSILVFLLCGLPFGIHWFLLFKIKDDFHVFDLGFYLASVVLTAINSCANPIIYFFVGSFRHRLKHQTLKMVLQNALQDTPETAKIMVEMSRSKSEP
Experimental: (§1) An incubation buffer was composed of: 0.5 μl of Fluo-3, 2 μl of Pluronic F-127 and 997.5 μl of CIB (calcium imaging buffer: 125 mM NaCl, 3 mM KCl, 2.5 mM CaCl2, 0.6 mM MgCl2, 10 mM HEPES, 20 mM glucose, 1.2 mM NaHCO3 and 20 mM sucrose, and pH=7.4). Different concentrations (0, 1, 10, 100 nM and 1 μM) of Atovaquone were prepared in the incubation buffer, and an incubation buffer solution without Atovaquone was used as a negative control. LAD2 cells were washed twice with CIB, and then a desired incubation buffer solution was added. After incubation for 30 min, the cells were washed twice with CIB, and then inoculated into a 96-well plate for calcium imaging. For calcium imaging, the cells were magnified 200× and a photo was obtained per second under blue light. After a substance was injected, the cells were confirmed as being responsive if [Ca^2+] rose by at least 50%.
(§2) FIG. 2 is a dynamic observation graph showing a calcium ion flow change when a substance P acted on different receptors, i.e., a schematic representation of the substance P acting on MrgA1, MrgX2 and NKIR (5 nM acted on NKIR, 50 nM acted on MrgX2 and 10 μM acted on MrgA1). This image set was photographed every 5 s from left to right for 120 s. In each group of graphs, a column represented cells with Atovaquone, the next column represented cells without Atovaquone.

[1] = cited from earlier work
LAD2 mast cells = assay: β-hexosaminidase assay of mast cell degranulation stimulated by SP; format: cell-based; details: SP stimulating experiment, FIG. 1
Experimental: An experimental method using a β-hexosaminidase assay comprises the following steps: • 1. a PNAG/HEPES buffer/0.1% Triton-100/glycine solution was prepared at a normal temperature; • 2. LAD2 cell was taken out from an incubator at 37° C. and cell count was read, and then an appropriate amount of cell suspension was taken according to experimental cell requirements (estimated based on 5000-10000/well); • 3. the LAD2 cell suspension was centrifuged for 5 min on a centrifuge at 4° C. at […], and then supernatant was discarded; • 4. cells were evenly mixed in the solution after HEPES buffer was added; • 5. the cell suspension was transferred to a 96-well plate, with 80 ul per well; • 6. a to-be-tested drug Atovaquone was added to a corresponding position according to experiment design, the positions of a positive control SP (neuropeptide substance P), a negative control QWF (MRGPRX2 receptor antagonist) and a blank control were reserved, and each drug was administrated for three repetitions; • 7. the cells were co-incubated with the drug for 30 min; • 8. […]
Detection of m Absorbance
• 12. the degranulation percentage of mast cells was calculated.
According to a formula: degranulation percentage-2×absorbance of supernatant plate/(absorbance of supernatant plate+[…]absorbance of cell lysis plate)×100%

NKIR = NKIR (Homo sapiens, UniProt P25103); assay: Calcium ion flow when substance P acts on NKIR; format: cell-based; details: substance P 5 nM acted on NKIR; cells with vs without Atovaquone; FIG. 2
Experimental: as §1, §2

LAD2 cells = assay: Intracellular calcium ion flow experiment (calcium imaging, Fluo-3); format: cell-based; details: Atovaquone at different concentrations (0, 1, 10, 100 nM and 1 μM), incubation 30 min; FIG. 3
Experimental: as §1

Sequence of NKIR (P25103 whole entry): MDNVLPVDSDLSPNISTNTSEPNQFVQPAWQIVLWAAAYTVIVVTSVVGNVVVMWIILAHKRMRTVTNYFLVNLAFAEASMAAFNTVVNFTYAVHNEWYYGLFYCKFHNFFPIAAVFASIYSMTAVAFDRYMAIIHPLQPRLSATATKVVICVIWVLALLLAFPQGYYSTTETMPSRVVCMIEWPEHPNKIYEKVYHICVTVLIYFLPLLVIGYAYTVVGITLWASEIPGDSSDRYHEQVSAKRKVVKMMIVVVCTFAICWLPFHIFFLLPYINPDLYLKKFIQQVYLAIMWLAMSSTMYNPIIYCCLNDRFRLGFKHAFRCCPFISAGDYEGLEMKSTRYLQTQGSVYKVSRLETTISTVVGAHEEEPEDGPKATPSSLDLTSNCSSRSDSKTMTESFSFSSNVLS

effect on MrgA1 mediated calcium ion flow (MrgA1): inferior to that on MrgX2 | effect on NKIR mediated calcium ion flow (NKIR): inferior to that on MrgX2
Compound: O=C1C(O)=C([C@H]2CC[C@H](c3ccc(Cl)cc3)CC2)C(=O)c2ccccc21 [Atovaquone]
drug dependence ([1]; after long-term use): no significant drug dependence phenomenon | side effects ([1]; users in a population): low side effect characteristics | inhibition of LAD2 mast cell degranulation compared with QWF (LAD2 mast cells): far superior to QWF | degranulation of LAD2 mast cells (degranulation percentage) (LAD2 mast cells; cells co-incubated with drug 30 min, then SP 30 min): obviously improved | calcium ion flow (LAD2 cells): reduction in calcium ion flow
